Data from patent US20250019377A1 (JACOBIO PHARMACEUTICALS CO., LTD, priority 2021, published 2025).
Blank lines part the entries; values can stand above or below the molecule they belong to.

How the values were obtained:
K-Ras G12V [1] = target: T1, K-Ras G12V (Homo sapiens, UniProt P01116, G12V); assay: biochemical
[2] = tested on: AsPC-1 cells (K-Ras G12D); assay: 2D cell growth inhibition assay, AsPC-1; format: cell-based; conditions: Homo sapiens, ASPC1, 144 h, AsPC-1, K-Ras G12D, 6 days, absolute IC50
[3] = tested on: p-ERK in SW620 cells (K-Ras G12V); assay: Phospho-ERK1/2(THR202/TYR204) HTRF assay, SW620; format: cell-based; conditions: Homo sapiens, SW-620, 2 h, 2 hours incubation
SW620 cells (K-Ras G12V) = assay: 2D cell growth inhibition assay, SW620; format: cell-based; conditions: Homo sapiens, SW-620, 144 h, 6 days, absolute IC50
AGS cells (K-Ras G12D) = assay: 2D cell growth inhibition assay, AGS; format: cell-based; conditions: Homo sapiens, 144 h, 6 days, absolute IC50
K-Ras G12V [4] = target: T1, K-Ras G12V; assay: SOS1 catalyzed nucleotide exchange assay (GDP form K-Ras), K-Ras G12V; conditions: read-out: K-Ras G12V GDP Biochemical Activity (IC50)
[5] = tested on: p-ERK in AGS cells (K-Ras G12D); assay: Phospho-ERK1/2(THR202/TYR204) HTRF assay, AGS; format: cell-based; conditions: Homo sapiens, 2 h, 2 hours incubation
K-Ras WT = K-Ras WT (Homo sapiens, UniProt P01116); assay: SOS1 catalyzed nucleotide exchange assay (GDP form K-Ras), K-Ras WT; conditions: read-out: K-Ras WT GDP Biochemical Activity (IC50)
Sequence of K-Ras WT (P01116 1-169 isoform P01116-2): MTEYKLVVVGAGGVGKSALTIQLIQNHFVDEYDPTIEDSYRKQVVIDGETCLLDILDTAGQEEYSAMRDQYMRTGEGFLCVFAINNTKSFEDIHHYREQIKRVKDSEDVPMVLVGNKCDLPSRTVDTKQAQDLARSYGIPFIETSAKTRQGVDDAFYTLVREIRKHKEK

T1 sequence (P01116 1-169 isoform P01116-2 G12V): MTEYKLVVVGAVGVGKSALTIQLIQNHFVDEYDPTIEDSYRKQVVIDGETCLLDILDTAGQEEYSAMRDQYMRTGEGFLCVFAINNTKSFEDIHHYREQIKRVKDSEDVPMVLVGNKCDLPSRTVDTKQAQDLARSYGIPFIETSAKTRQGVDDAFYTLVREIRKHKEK

Compound: C#Cc1c(F)ccc2cc(O)cc(-c3ncc4c(N5CCOCC(F)(F)C5)nc(OC[C@@]56CCCN5C[C@H](F)C6)nc4c3F)c12 [Compound 18, 4-(4-(6,6-difluoro-1,4-oxazepan-4-yl)-8-fluoro-2-(((2R,7aS)-2-fluorotetrahydro-1H-pyrrolizin-7a(5H)-yl)methoxy)pyrido[4,3-d]pyrimidin-7-yl)-5-ethynyl-6-fluoronaphthalen-2-ol trifluoroacetic acid]
- IC50 (K-Ras G12V [1]): 107 nM
- IC50 [2]: 95.7 nM
- IC50 [3]: 2.1 nM
- IC50 (SW620 cells (K-Ras G12V)): 5.68 nM
- IC50 (AGS cells (K-Ras G12D)): 7.96 nM
- IC50 (K-Ras G12V [4]): 1.41 nM
- IC50 [5]: 5.99 nM

Compound: C#Cc1c(F)ccc2cc(O)cc(-c3c(Cl)cc4c(N5CCCOCC5)nc(OC[C@@]56CCCN5C[C@H](F)C6)nc4c3F)c12 [Compound 19, 4-(6-chloro-8-fluoro-2-(((2R,7aS)-2-fluorotetrahydro-1H-pyrrolizin-7a(5H)-yl)methoxy)-4-(1,4-oxazepan-4-yl)quinazolin-7-yl)-5-ethynyl-6-fluoronaphthalen-2-ol trifluoroacetic acid]
- IC50 (K-Ras G12V [1]): 221 nM
- IC50 [2]: 2370 nM
- IC50 [3]: 52.5 nM
- IC50 (SW620 cells (K-Ras G12V)): 119 nM
- IC50 (AGS cells (K-Ras G12D)): 5510 nM
- IC50 (K-Ras G12V [4]): 9.69 nM
- IC50 (K-Ras WT): 16.3 nM
- IC50 [5]: 47.9 nM

Compound: C#Cc1c(F)ccc2cc(O)cc(-c3ncc4c(N5CCOCC(N(C)C)C5)nc(OC[C@@]56CCCN5C[C@H](F)C6)nc4c3F)c12 (stereo partly drawn) [Compound 26, 4-(4-(6-(dimethylamino)-1,4-oxazepan-4-yl)-8-fluoro-2-(((2R,7aS)-2-fluorotetrahydro-1H-pyrrolizin-7a(5H)-yl)methoxy)pyrido[4,3-d]pyrimidin-7-yl)-5-ethynyl-6-fluoronaphthalen-2-ol]
- IC50 (K-Ras G12V [1]): 4150 nM
- IC50 (K-Ras G12V [4]): 5.77 nM
- IC50 (K-Ras WT): 4.72 nM

Compound: Oc1cc(-c2ncc3c(N4CCCOCC4)nc(OC[C@@]45CCCN4C[C@H](F)C5)nc3c2F)c2c(F)c(F)ccc2c1 [Compound 40, 5,6-difluoro-4-(8-fluoro-2-(((2R,7aS)-2-fluorotetrahydro-1H-pyrrolizin-7a(5H)-yl)methoxy)-4-(1,4-oxazepan-4-yl)pyrido[4,3-d]pyrimidin-7-yl)naphthalen-2-ol trifluoroacetic acid]
- IC50 (K-Ras G12V [1]): 124 nM
- IC50 [2]: 91.3 nM
- IC50 [3]: 14.1 nM
- IC50 (SW620 cells (K-Ras G12V)): 24.8 nM
- IC50 (AGS cells (K-Ras G12D)): 9.24 nM
- IC50 (K-Ras G12V [4]): 1.94 nM
- IC50 [5]: 5.68 nM

Compound: C#Cc1c(F)ccc2cc(O)cc(-c3nc(OC4CC4)c4c(N5CCCOCC5)nc(OC[C@@]56CCCN5C[C@H](F)C6)nc4c3F)c12 [Compound 51, 4-(5-cyclopropoxy-8-fluoro-2-(((2R,7aS)-2-fluorotetrahydro-1H-pyrrolizin-7a(5H)-yl)methoxy)-4-(1,4-oxazepan-4-yl)pyrido[4,3-d]pyrimidin-7-yl)-5-ethynyl-6-fluoronaphthalen-2-ol trifluoroacetic acid]
- IC50 (K-Ras G12V [1]): 22 nM
- IC50 [2]: 74.2 nM
- IC50 [3]: 8.5 nM
- IC50 (SW620 cells (K-Ras G12V)): 10.3 nM
- IC50 (AGS cells (K-Ras G12D)): 9.66 nM
- IC50 (K-Ras G12V [4]): 1.69 nM
- IC50 [5]: 2.27 nM

Compound: C#Cc1c(F)ccc2cc(O)cc(-c3ncc4c(N5CCCOCC5)nc(OCC56CCCN5CC(N(C)C)C6)nc4c3F)c12 (stereo not drawn) [Compound 83]
- IC50 (K-Ras G12V [1]): 343 nM
- IC50 (K-Ras G12V [4]): 3.11 nM
- IC50 (K-Ras WT): 8.04 nM

Compound: C#Cc1c(F)ccc2cc(O)cc(-c3ncc4c(N5CC(F)(F)COCC5C)nc(OC[C@@]56CCCN5C[C@H](F)C6)nc4c3F)c12 (stereo partly drawn) [Compound 105, 4-(4-(6,6-difluoro-3-methyl-1,4-oxazepan-4-yl)-8-fluoro-2-(((2R,7aS)-2-fluorotetra-hydro-1H-pyrrolizin-7a(5H)-yl)methoxy)pyrido[4,3-d]pyrimidin-7-yl)-5-ethynyl-6-fluoronaphthalen-2-ol]
- IC50 (K-Ras G12V [1]): 378 nM
- IC50 [2]: 326 nM
- IC50 [3]: 34.8 nM
- IC50 (SW620 cells (K-Ras G12V)): 104 nM
- IC50 (AGS cells (K-Ras G12D)): 53.6 nM
- IC50 (K-Ras G12V [4]): 2.08 nM
- IC50 [5]: 23 nM

Compound: C#Cc1c(F)ccc2cc(O)cc(-c3ncc4c(N5[C@H]6COC[C@@H](C)[C@@H]5C6)nc(OC[C@@]56CCCN5C[C@H](F)C6)nc4c3F)c12 [Compound 111, 5-ethynyl-6-fluoro-4-(8-fluoro-2-(((2R,7aS)-2-fluorotetrahydro-1H-pyrrolizin-7a(5H)-yl)methoxy)-4-((1R,5S,6S)-5-methyl-3-oxa-7-azabicyclo[4.1.1]octan-7-yl)pyrido [4,3-d]pyrimidin-7-yl)naphthalen-2-ol]
- IC50 (K-Ras G12V [1]): > 1000 nM
- IC50 [2]: 390 nM
- IC50 [3]: 84 nM
- IC50 (SW620 cells (K-Ras G12V)): 73.8 nM
- IC50 (AGS cells (K-Ras G12D)): 86 nM
- IC50 (K-Ras G12V [4]): 4.21 nM
- IC50 [5]: 17.4 nM

Compound: C#Cc1c(F)ccc2cc(O)cc(-c3ncc4c(N5CCCOC6CC65)nc(OC[C@@H]5CCCN5C)nc4c3F)c12 (stereo partly drawn) [Compound 113, 4-(4-(2-oxa-6-azabicyclo[5.1.0]octan-6-yl)-8-fluoro-2-(((S)-1-methylpyrrolidin-2-yl)methoxy)pyrido[4,3-d]pyrimidin-7-yl)-5-ethynyl-6-fluoronaphthalen-2-ol]
- IC50 (K-Ras G12V [1]): 29 nM
- IC50 [2]: 121 nM
- IC50 [3]: 10.4 nM
- IC50 (SW620 cells (K-Ras G12V)): 22.4 nM
- IC50 (AGS cells (K-Ras G12D)): 9.76 nM
- IC50 (K-Ras G12V [4]): 1.66 nM
- IC50 [5]: 1.83 nM

Other lines, results leading:

- IC50 (K-Ras G12V [1]): 483 nM
- IC50 [2]: 323 nM
- IC50 [3]: 40 nM
- IC50 (SW620 cells (K-Ras G12V)): 205 nM
- IC50 (AGS cells (K-Ras G12D)): 75.4 nM
- IC50 (K-Ras G12V [4]): 2.12 nM
- IC50 [5]: 19.4 nM
Compound: C#Cc1c(F)ccc2cc(O)cc(-c3nc(C(F)F)c4c(N5CCCOCC5)nc(OC[C@@]56CCCN5C[C@H](F)C6)nc4c3F)c12 [Compound 34, 4-(5-(difluoromethyl)-8-fluoro-2-(((2R,7aS)-2-fluorotetrahydro-1H-pyrrolizin-7a(5H)-yl)methoxy)-4-(1,4-oxazepan-4-yl)pyrido[4,3-d]pyrimidin-7-yl)-5-ethynyl-6-fluoronaphthalen-2-ol trifluoroacetic acid]

- IC50 (K-Ras G12V [1]): 22.1 nM
- IC50 [2]: 88.5 nM
- IC50 [3]: 11.9 nM
- IC50 (SW620 cells (K-Ras G12V)): 9.2 nM
- IC50 (AGS cells (K-Ras G12D)): 5.63 nM
- IC50 (K-Ras G12V [4]): 5.81 nM
- IC50 [5]: 1.42 nM
Compound: C#Cc1c(F)ccc2cc(O)cc(-c3nc(C4CC4)c4c(N5CCCOCC5)nc(OC[C@@]56CCCN5C[C@H](F)C6)nc4c3F)c12 [Compound 35, 4-(5-cyclopropyl-8-fluoro-2-(((2R,7aS)-2-fluorotetrahydro-1H-pyrrolizin-7a(5H)-yl)methoxy)-4-(1,4-oxazepan-4-yl)pyrido[4,3-d]pyrimidin-7-yl)-5-ethynyl-6-fluoronaphthalen-2-ol trifluoroacetic acid]

- IC50 (K-Ras G12V [1]): 267 nM
- IC50 [2]: 734 nM
- IC50 [3]: 48.8 nM
- IC50 (SW620 cells (K-Ras G12V)): 112 nM
- IC50 (AGS cells (K-Ras G12D)): 37.3 nM
- IC50 (K-Ras G12V [4]): 7.96 nM
- IC50 [5]: 12.4 nM
Compound: C#Cc1c(F)ccc2cc(O)cc(-c3nc(CO)c4c(N5CCCOCC5)nc(OC[C@@]56CCCN5C[C@H](F)C6)nc4c3F)c12 [Compound 36, 5-ethynyl-6-fluoro-4-(8-fluoro-2-(((2R,7aS)-2-fluorotetrahydro-1H-pyrrolizin-7a(5H)-yl)methoxy)-5-(hydroxymethyl)-4-(1,4-oxazepan-4-yl)pyrido[4,3-d]pyrimidin-7-yl)naphthalen-2-ol trifluoroacetic acid]

- IC50 (K-Ras G12V [1]): 152 nM
- IC50 [2]: 106 nM
- IC50 [3]: 40.9 nM
- IC50 (SW620 cells (K-Ras G12V)): 41.6 nM
- IC50 (AGS cells (K-Ras G12D)): 51.7 nM
- IC50 (K-Ras G12V [4]): 4.38 nM
- IC50 [5]: 17.7 nM
Compound: C#Cc1c(F)ccc2cc(O)cc(-c3nc(SC)c4c(N5CCCOCC5)nc(OC[C@@]56CCCN5C[C@H](F)C6)nc4c3F)c12 [Compound 47, 5-ethynyl-6-fluoro-4-(8-fluoro-2-(((2R,7aS)-2-fluorotetrahydro-1H-pyrrolizin-7a(5H)-yl)methoxy)-5-(methylthio)-4-(1,4-oxazepan-4-yl)pyrido[4,3-d]pyrimidin-7-yl)naphthalen-2-ol trifluoroacetic acid]

- IC50 (K-Ras G12V [1]): 16.6 nM
- IC50 [2]: 40.4 nM
- IC50 [3]: 2.43 nM
- IC50 (SW620 cells (K-Ras G12V)): 5.66 nM
- IC50 (AGS cells (K-Ras G12D)): 8.11 nM
- IC50 (K-Ras G12V [4]): 1.88 nM
- IC50 [5]: 9.66 nM
Compound: C#Cc1c(F)ccc2cc(O)cc(-c3nc(OC(C)C)c4c(N5CCCOCC5)nc(OC[C@@]56CCCN5C[C@H](F)C6)nc4c3F)c12 [Compound 52, 5-ethynyl-6-fluoro-4-(8-fluoro-2-(((2R,7aS)-2-fluorotetrahydro-1H-pyrrolizin-7a(5H)-yl)methoxy)-5-isopropoxy-4-(1,4-oxazepan-4-yl)pyrido[4,3-d]pyrimidin-7-yl)naphthalen-2-ol trifluoroacetic acid]

- IC50 (K-Ras G12V [1]): 140 nM
- IC50 [2]: 320 nM
- IC50 [3]: 34.8 nM
- IC50 (SW620 cells (K-Ras G12V)): 91 nM
- IC50 (AGS cells (K-Ras G12D)): 25.4 nM
- IC50 (K-Ras G12V [4]): 3.01 nM
- IC50 [5]: 5.47 nM
Compound: C#Cc1c(F)ccc2cc(O)cc(-c3nc(C)c4c(N5CCCOCC5)nc(OC[C@@]56CCCN5C[C@H](F)C6)nc4c3F)c12 [Compound 121, 5-ethynyl-6-fluoro-4-(8-fluoro-2-(((2R,7aS)-2-fluorotetrahydro-1H-pyrrolizin-7a(5H)-yl)methoxy)-5-methyl-4-(1,4-oxazepan-4-yl)pyrido[4,3-d]pyrimidin-7-yl) naphthalen-2-ol]

- IC50 (K-Ras G12V [1]): 156 nM
- IC50 [2]: 2800 nM
- IC50 [3]: 803 nM
- IC50 (SW620 cells (K-Ras G12V)): 525 nM
- IC50 (AGS cells (K-Ras G12D)): 8.51 nM
- IC50 (K-Ras G12V [4]): 2.49 nM
- IC50 [5]: 517 nM
Compound: C#Cc1c(F)ccc2cc(O)cc(-c3nc(O)c4c(N5CCCOCC5)nc(OC[C@@]56CCCN5C[C@H](F)C6)nc4c3F)c12 [Compound 123, 7-(8-ethynyl-7-fluoro-3-hydroxynaphthalen-1-yl)-8-fluoro-2-(((2R,7aS)-2-fluoro-tetrahydro-1H-pyrrolizin-7a(5H)-yl)methoxy)-4-(1,4-oxazepan-4-yl)pyrido[4,3-d] pyrimidin-5-ol]
